Source: PubChem BioAssay (NCI)
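Results reflect a 48-hour exposure of cells in 96-well plates to compound at five concentrations. TGI marks complete inhibition of growth.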

How the values were obtained:
Experiment in all cases: NCI tumour cell line growth inhibition, 48 h
SK-MEL-5 melanoma = tested on: SK-MEL-5 melanoma
CAKI-1 renal = tested on: CAKI-1 renal
P388/ADR leukemia = tested on: P388/ADR leukemia
A549 NSCLC = tested on: A549 NSCLC
SNB-19 CNS = tested on: SNB-19 CNS
OVCAR-3 ovarian = tested on: OVCAR-3 ovarian
MDA-MB-231 breast = tested on: MDA-MB-231 breast
UACC-257 melanoma = tested on: UACC-257 melanoma
SN12C renal = tested on: SN12C renal
OVCAR-5 ovarian = tested on: OVCAR-5 ovarian
M19-MEL melanoma = tested on: M19-MEL melanoma
XF 498 CNS = tested on: XF 498 CNS
CCRF-CEM leukemia = tested on: CCRF-CEM leukemia
786-0 renal = tested on: 786-0 renal
K-562 leukemia = tested on: K-562 leukemia
LXFL 529 NSCLC = tested on: LXFL 529 NSCLC
U251 CNS = tested on: U251 CNS
HCT-116 colon = tested on: HCT-116 colon
OVCAR-8 ovarian = tested on: OVCAR-8 ovarian
KM12 colon = tested on: KM12 colon
SN12K1 renal = tested on: SN12K1 renal
DMS 114 small cell lung = tested on: DMS 114 small cell lung
UACC-62 melanoma = tested on: UACC-62 melanoma
COLO 205 colon = tested on: COLO 205 colon
NCI-H226 lung = tested on: NCI-H226 lung
NCI-H460 lung = tested on: NCI-H460 lung
MCF7 breast = tested on: MCF7 breast
HOP-62 NSCLC = tested on: HOP-62 NSCLC
SF-539 CNS = tested on: SF-539 CNS
LOX IMVI melanoma = tested on: LOX IMVI melanoma
DU-145 prostate = tested on: DU-145 prostate
UO-31 renal = tested on: UO-31 renal
IGROV1 ovarian = tested on: IGROV1 ovarian
BT-549 breast = tested on: BT-549 breast
SK-MEL-28 melanoma = tested on: SK-MEL-28 melanoma
SK-OV-3 ovarian = tested on: SK-OV-3 ovarian
MOLT-4 leukemia = tested on: MOLT-4 leukemia
PC-3 prostate = tested on: PC-3 prostate
NCI-H522 lung = tested on: NCI-H522 lung
SF-268 CNS = tested on: SF-268 CNS
HCT-15 colon = tested on: HCT-15 colon
NCI-H23 lung = tested on: NCI-H23 lung
MALME-3M melanoma = tested on: MALME-3M melanoma
KM20L2 colon = tested on: KM20L2 colon
P388 leukemia = tested on: P388 leukemia
HOP-18 NSCLC = tested on: HOP-18 NSCLC
TK-10 renal = tested on: TK-10 renal
SW-620 colon = tested on: SW-620 colon
SNB-78 CNS = tested on: SNB-78 CNS
DLD-1 colon = tested on: DLD-1 colon
HT29 colon = tested on: HT29 colon
SF-295 CNS = tested on: SF-295 CNS
SNB-75 CNS = tested on: SNB-75 CNS
OVCAR-4 ovarian = tested on: OVCAR-4 ovarian
NCI/ADR-RES ovarian = tested on: NCI/ADR-RES ovarian
HL-60(TB) leukemia = tested on: HL-60(TB) leukemia
HCC-2998 colon = tested on: HCC-2998 colon
EKVX NSCLC = tested on: EKVX NSCLC
RXF 393 renal = tested on: RXF 393 renal
RPMI-8226 leukemia = tested on: RPMI-8226 leukemia
RXF-631 renal = tested on: RXF-631 renal
DMS 273 small cell lung = tested on: DMS 273 small cell lung
A498 renal = tested on: A498 renal
M14 melanoma = tested on: M14 melanoma
SK-MEL-2 melanoma = tested on: SK-MEL-2 melanoma
HOP-92 NSCLC = tested on: HOP-92 NSCLC

Question: Which results are given for `COc1cc(C2c3cc4c(cc3[C@@H](Nc3ccc5c(c3)OCCO5)C3COC(=O)[C@H]23)OCO4)cc(OC)c1O` (stereo partly specified)?
Answer: TGI (SK-MEL-5 melanoma): 1.75 µM; TGI (CAKI-1 renal): 2.42 µM; TGI (P388/ADR leukemia): 1.25 µM; TGI (A549 NSCLC): 7.15 µM; TGI (SNB-19 CNS): 66.6 µM; TGI (OVCAR-3 ovarian): 7.1 µM; TGI (MDA-MB-231 breast): > 100 µM; TGI (UACC-257 melanoma): > 32.3 µM; TGI (SN12C renal): 10.2 µM; TGI (OVCAR-5 ovarian): 16.6 µM; TGI (M19-MEL melanoma): > 35.9 µM; TGI (XF 498 CNS): 5.89 µM; TGI (CCRF-CEM leukemia): 2.28 µM; TGI (786-0 renal): 3.11 µM; TGI (K-562 leukemia): 16.4 µM; TGI (LXFL 529 NSCLC): > 100 µM; TGI (U251 CNS): 8.26 µM; TGI (HCT-116 colon): 8 µM; TGI (OVCAR-8 ovarian): 25.6 µM; TGI (KM12 colon): 10.9 µM; TGI (SN12K1 renal): 9.19 µM; TGI (DMS 114 small cell lung): 3.42 µM; TGI (UACC-62 melanoma): 7.19 µM; TGI (COLO 205 colon): 4.43 µM; TGI (NCI-H226 lung): 1.94 µM; TGI (NCI-H460 lung): 2.23 µM; TGI (MCF7 breast): > 100 µM; TGI (HOP-62 NSCLC): 1.31 µM; TGI (SF-539 CNS): 5.07 µM; TGI (LOX IMVI melanoma): 22.4 µM; TGI (DU-145 prostate): > 100 µM; TGI (UO-31 renal): 12.9 µM; TGI (IGROV1 ovarian): 16.6 µM; TGI (BT-549 breast): 16.4 µM; TGI (SK-MEL-28 melanoma): > 47.6 µM; TGI (SK-OV-3 ovarian): 8.7 µM; TGI (MOLT-4 leukemia): 1.02 µM; TGI (PC-3 prostate): > 100 µM; TGI (NCI-H522 lung): 5.43 µM; TGI (SF-268 CNS): 23.1 µM; TGI (HCT-15 colon): 7.23 µM; TGI (NCI-H23 lung): 2.79 µM; TGI (MALME-3M melanoma): 26.4 µM; TGI (KM20L2 colon): 9.05 µM; TGI (P388 leukemia): 1.26 µM; TGI (HOP-18 NSCLC): > 100 µM; TGI (TK-10 renal): 11.6 µM; TGI (SW-620 colon): > 79.1 µM; TGI (SNB-78 CNS): > 34.2 µM; TGI (DLD-1 colon): 5.17 µM; TGI (HT29 colon): 5.96 µM; TGI (SF-295 CNS): 4.25 µM; TGI (SNB-75 CNS): 5.59 µM; TGI (OVCAR-4 ovarian): 29.3 µM; TGI (NCI/ADR-RES ovarian): > 100 µM; TGI (HL-60(TB) leukemia): 0.241 µM; TGI (HCC-2998 colon): 3.65 µM; TGI (EKVX NSCLC): 17 µM; TGI (RXF 393 renal): 4.64 µM; TGI (RPMI-8226 leukemia): 8.42 µM; TGI (RXF-631 renal): 3.51 µM; TGI (DMS 273 small cell lung): 1.87 µM; TGI (A498 renal): 1.42 µM; TGI (M14 melanoma): 5.08 µM; TGI (SK-MEL-2 melanoma): 12 µM; TGI (HOP-92 NSCLC): 4.64 µM
